SMILES strings stand for the structures.

Data set [1] in a line: Stability in liver microsomes (mouse). Particulars: m (CD-1 mouse liver microsomes), 0.5 mg/mL, read-out: MMS Clint. Type of data set: in vitro ADME, CD-1 mice. The procedure:
The purpose of this study was to evaluate the phase I metabolic stability of the assay sample in liver microsomes from CD-1 mice, Sprague-Dawley (SD) rats, beagle dogs, cynomolgus monkeys, and human.
The animal and human liver microsomes used in this assay system were purchased from Xenotech, Corning, or other qualified suppliers.
Preparation of buffer: 73.21 g of potassium phosphate dibasic trihydrate and 10.78 g of potassium dihydrogen phosphate were dissolved in 4000 mL of ultrapure water. The pH of the solution was adjusted to the range of 7.40 ± 0.10 using 10.0% phosphoric acid or 1.00 M potassium hydroxide. Its final concentration was 100 mM.
Preparation of working solutions: An assay sample powder was prepared into a 10.0 mM stock solution with DMSO, and then further diluted with a suitable organic solvent. The control compounds testosterone, diclofenac, and propafenone were prepared into 10.0 mM stock solutions using DMSO, and then further diluted with a suitable organic solvent.
Preparation of liver microsome solution: Microsomes of various species were diluted with 100 mM potassium phosphate buffer to a working solution of 0.56 mg/mL. The final concentration of microsomes in the reaction system was 0.500 mg/mL. Detailed preparation procedures were described in the experimental records.
Preparation of reduced nicotinamide adenine dinucleotide phosphate (NADPH) solution: An appropriate amount of reduced nicotinamide adenine dinucleotide phosphate was dissolved in magnesium chloride solution, and the mixture was shaken to mix well. The final concentrations in the reaction system were 1.00 mM NADPH and 1.00 mM magnesium chloride, respectively. Detailed preparation procedures were described in the experimental records.
Preparation of stop solution: The stop solution was prepared using acetonitrile containing internal standards (tolbutamide and labetalol). The prepared stop solution was stored at 2.0 to 8.0 °C in a refrigerator. Detailed preparation procedures were described in the experimental records. […]
A general note: Liver microsomes are a subcellular fraction often used to study metabolism.

Data set [2] is described as follows: Plasma protein binding rate, equilibrium dialysis (dog plasma). Type of data set: in vitro ADME, beagle dogs. As to conditions: d (beagle dog plasma), dialysis 4 hours at 37 °C, read-out: Unbound PPB%. The procedure:
The protein binding rates of the compounds in the plasma of CD-1 mice, Sprague-Dawley rats, beagle dogs, cynomolgus monkeys, and human were determined using equilibrium dialysis method.
Commercially available plasma, dual-layer dialysis membrane, and equilibrium dialysis device.
The dual-layer dialysis membrane was soaked in ultrapure water for about 1 hour, removed and then divided into two parts. It was then soaked in an ethanol:water (20:80, v:v) solution for 20 minutes or placed at 2 to 8 °C, and it was valid for 1 month. Before starting the assay, the dialysis membrane was rinsed twice with ultrapure water and then soaked in ultrapure water for another 20 minutes for later use.
On the day of assay, the frozen plasma of CD-1 mice, Sprague-Dawley rats, beagle dogs, cynomolgus monkeys, and human was thawed in running cold tap water. After the plasma was completely thawed, the plasma was centrifuged at 3220×g for 5 minutes, and the suspended substances and precipitates in it were removed. The pH of the plasma was determined. The plasma with a pH in the range of 7.4 ± 0.1 was directly used, or the plasma with a pH in the range of 7.4 ± 0.1 after an adjustment with 1% phosphoric acid or 1M sodium hydroxide was used.
Preparation process of plasma samples: 597 µL of blank plasma from each of the above five species was taken, respectively. 3 µL of a compound or warfarin working solution was added, and the mixture was mixed thoroughly to give a plasma sample with a compound concentration of 2 µM and a warfarin concentration of 2 µM (n=1). The concentration of the organic phase DMSO was 0.5%. The sample was thoroughly mixed before proceeding to the next step.
Preparation process of T0 samples: 50 µL of a plasma sample containing the compound and warfarin was transferred to a sample receiving plate (n=3), and 50 µL of blank PBS was immediately added. Then, 500 µL of stop solution was added to the T0 sample of the compound and warfarin, and the mixture was stored at 2 to 8 °C, waiting to be processed later together with other dialysis-processed samples.
Dialysis process of plasma samples: 100 µL of a compound (2 µM) and warfarin (2 µM) plasma sample was added to the donor of each dialysis well (n=3), and 100 µL of blank PBS was added to the corresponding receiver of the dialysis well. The dialysis plate was placed in a 5% CO2 incubator, and incubated at 37 °C with shaking at approximately 100 rpm for 4 hours.
After the dialysis was completed, 50 µL of dialysis-processed PBS sample and dialysis-processed plasma sample (n=3) were transferred to a new 96-well plate (sample receiving plate). The corresponding volume of the corresponding blank plasma or PBS was added to the sample to make the final volume of each sample well 100 µL, with a plasma to PBS volume ratio of 1:1. All the samples were analyzed by LC-MS/MS after protein precipitation.
The formulas for calculating the unbound fraction (%Unbound), bound fraction (%Bound) and recovery fraction (%Recovery) of a compound are as follows: %Unbound = 100 ×F / T %Bound = 100 - %Unbound %Recovery = 100 ×(F + T)/ T0 wherein F is the concentration of the compound at the receiver of dialysis; T is the concentration of the compound at the supply end of dialysis; and T0 is the concentration of the compound in the plasma at time zero.
On the technique in general: In equilibrium dialysis only unbound substance equilibrates across the membrane.

On to `CC(C)(C)CC(=O)Nc1nc2c(F)cc(C#N)cn2c1-c1ccc(OC(F)(F)F)cc1` [Compound 1], for which the CLint scaled at 1 µM in data set [1] amounted to 220 mL/min/kg. Further, the fraction unbound at 4 h, 2 µM in data set [2] was 0.046.

Consider `CC(C)(C)CC(=O)Nc1nc2c(F)cc(C#N)cn2c1C1=CCCC1` [Compound 3], for which the CLint scaled at 1 µM in data set [1] is 103 mL/min/kg. In data set [2], the fraction unbound at 4 h, 2 µM stood at 0.203.

On to `CC(C)(C)CC(=O)Nc1nc2c(F)cc(C#N)cn2c1C12CC(C1)C2` [Compound 5], for which the CLint scaled at 1 µM in data set [1] was < 38 mL/min/kg. Besides, in data set [2], the fraction unbound at 4 h, 2 µM was found to be 0.278.

(Values after EP4786454A1, “HETEROARYL DERIVATIVE AND USE THEREOF” (priority 2023, dated 2025).)
